Measurements reported in patent US7449477B2, “7-phenyl-isoquinoline-5-sulfonylamino derivatives as inhibitors of akt (protein kinase B)” (Eli Lilly and Company, priority 2003, dated 2008).
Where a name gives a salt, the structure may show the parent alone.

Target: T1, active human Akt1 (Homo sapiens, UniProt P31749)
T1 construct: Active human recombinant Akt1 (full-length) purified from Sf9 insect cells; purchased Upstate Biotechnology, Inc. 14-276; host or cells: Sf9 insect cells
Assay: Akt1 Phosphorylation Assay (phosphocellulose filter-binding, 33P-Crosstide)
Type: biochemical
Conditions: active human recombinant Akt1 (full-length) 10 nM; 12.5 μM Crosstide; 20 μM ATP; 30 minutes at room temperature
Protocol: Akt1 Phosphorylation Assay
The assay described measures the phosphorylation of Crosstide by active human Akt1 and other Akt isoforms. Crosstide contains a consensus sequence derived from Akt substrates GSK3b and forkhead transcription factors (FKs). The ^33P-labeled Crosstide substrate is captured by phosphocellulose membrane filter plates.
Active human recombinant Akt1 (full-length) purified from Sf9 insect cells is from Upstate Biotechnology, Inc. (Cat. #14-276, 405 μg/ml). Crosstide substrate, NH2-GRPRTSSFAEG-COOH (M.W.1164) is purchased from Multiple Peptide System (Cat. # L59/GR145-153).
Solution (A): 20% DMSO (dimethylsulphoxide) or Compound in 20% DMSO; Solution (B): Assay Buffer Mix: 31.25 μM Crosstide, 37.5 mM MgCl2, 87.5 mM HEPES, pH 7.3, 50 μM ATP γ-^33P-ATP, 0.05 μCi/μl; Solution (C): Akt Kinase Mix: 31.25 mM HEPES, pH 7.3; 1 mM DTT, 25 nM UBI Akt1.
Procedure for Phosphocellulose Filter-Binding Assay
Ten μl of Solution (A) are first mixed with 20 μl Solution (B). The enzymatic reaction is initiated by adding 20 μl Solution (C) to the mixture. (Final concentration or amount in a 50-μl reaction mix: 4% DMSO or various compound concentration in 4% DMSO; 12.5 μM Crosstide; 15 mM MgCl2; 35 mM HEPES, pH7.3; 20 μM ATP; 1 μCi γ-^33P-ATP; 0.4 mM DTT; 10 nM UBI Akt1.) The reactions are performed in 96-well microtiter plates.
After 30 minutes at room temperature, the reaction is terminated by adding 80 μl of 10% H3PO4. An aliquot of 100 μl from each well is transferred to the phosphocellulose filter plate (Millipore MultiScreen, Catalog #MAPHN0B50). After 30 minutes, the reaction mix is filtered with a Millipore manifold following by 3 washes with 0.5% H3PO4. The filter is then vacuum-dried and the plate is fitted onto a Packard carrier. 100 μl/well Microscint20 are added and the contents are counted in a Packard Top Count.

T1 sequence (P31749 whole entry): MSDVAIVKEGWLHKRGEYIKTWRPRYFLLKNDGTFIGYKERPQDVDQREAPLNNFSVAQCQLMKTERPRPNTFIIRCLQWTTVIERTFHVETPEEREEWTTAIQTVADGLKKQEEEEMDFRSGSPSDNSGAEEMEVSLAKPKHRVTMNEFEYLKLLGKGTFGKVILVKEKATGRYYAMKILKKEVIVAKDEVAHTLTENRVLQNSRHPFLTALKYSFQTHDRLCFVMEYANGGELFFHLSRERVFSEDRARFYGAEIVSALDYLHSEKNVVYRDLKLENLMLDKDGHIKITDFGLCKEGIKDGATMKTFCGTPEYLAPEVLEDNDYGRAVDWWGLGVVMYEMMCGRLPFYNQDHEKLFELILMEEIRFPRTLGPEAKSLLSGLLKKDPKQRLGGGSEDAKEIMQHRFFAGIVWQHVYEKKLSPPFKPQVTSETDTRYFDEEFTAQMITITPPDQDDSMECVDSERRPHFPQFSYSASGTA

IC50, ≤ 2000 nM:
O=S(=O)(NCCNCCCc1cccc(O)c1)c1cc(-c2ccc(O)cc2)cc2cnccc12 [Example 109, 7-(4-Hydroxy-phenyl)-isoquinoline-5-sulfonic acid {2-[3-(3-hydroxy-phenyl)-propylamino]-ethyl}-amide]
CS(=O)(=O)c1ccc(CCCNCCNS(=O)(=O)c2cc(-c3ccccc3)cc3cnccc23)cc1 [Example 100, 7-Phenyl-isoquinoline-5-sulfonic acid {2-[3-(4-methanesulfonyl-phenyl)-propylamino]-ethyl}-amide, dihydrochloride salt]
O=S(=O)(NCCNCCCc1cccc(O)c1)c1cc(-c2ccccc2)cc2cnccc12 [Example 18, 7-Phenyl-isoquinoline-5-sulfonic acid {2-[3-(3-hydroxyphenyl)-propylamino]-ethyl}-amide, dihydrochloride salt]
O=S(=O)(NCCNCCCc1cccc(F)c1F)c1cc(-c2ccccc2)cc2cnccc12 [Example 68, 7-Phenyl-isoquinoline-5-sulfonic acid {2-[3-(2,3-difluorophenyl)-propylamino]-ethyl}-amide, dihydrochloride salt]
CCc1cc([N+](=O)[O-])ccc1CCCNCCNS(=O)(=O)c1cc(-c2ccccc2)cc2cnccc12 [Example 103, 7-Phenyl-isoquinoline-5-sulfonic acid {2-[3-(2-ethyl-4-nitro-phenyl)-propylamino]-ethyl}-amide, dihydrochloride salt]
O=[N+]([O-])c1ccc(CCCNCCNS(=O)(=O)c2cc(-c3ccc(O)cc3)cc3cnccc23)cc1 [Example 98, 7-(4-hydroxy-phenyl)-isoquinoline-5-sulfonic acid {2-[3-(4-nitro-phenyl)-propylamino]-ethyl}-amide, dihydrochloride salt]
O=S(=O)(NCCNCCCc1ccc(Cl)cc1OC1CCNC1)c1cc(-c2ccccc2)cc2cnccc12 (centres unmarked) [Example 56, 7-Phenyl-isoquinoline-5-sulfonic acid {2-[3-(4-chloro-2-(pyrrolidin-3-yl)oxy-phenyl)-propylamino]-ethyl}-amide, trihydrochloride salt]
O=S(=O)(NCCNCCCc1ccc(Cl)cc1C1CCNCC1)c1cc(-c2ccccc2)cc2cnccc12 [Example 53, 7-Phenyl-isoquinoline-5-sulfonic acid {2-[3-(4-chloro-2-(piperidin-4-yl)-phenyl)-propylamino]-ethyl}-amide, trihydrochloride salt]
O=S(=O)(NCCNCCCc1ccc(Cl)cc1Cl)c1cc(-c2ccccc2)cc2cnccc12 [Example 65, 7-Phenyl-isoquinoline-5-sulfonic acid {2-[3-(2,4-dichlorophenyl)-propylamino]-ethyl}-amide, dihydrochloride salt]
O=S(=O)(NCCNCCCc1ccc(Cl)cc1N1CCNCC1)c1cc(-c2ccccc2)cc2cnccc12 [Example 44, 7-Phenyl-isoquinoline-5-sulfonic acid {2-[3-(4-chloro-2-piperazin-1-yl-phenyl)-propylamino]-ethyl}-amide, tetrahydrochloride salt]
CS(=O)(=O)c1ccc(C(O)CCNCCNS(=O)(=O)c2cc(-c3ccccc3)cc3cnccc23)cc1 (centres unmarked) [Example 79, 7-Phenyl-isoquinoline-5-sulfonic acid [2-(3-hydroxy-3-(4-methanesulfonyl-phenyl)-propylamino)-ethyl]-amide, dihydrochloride salt]
O=S(=O)(NCCNCCCc1ccccc1N1CCNCC1)c1cc(-c2ccccc2)cc2cnccc12 [Example 11, 7-Phenyl-isoquinoline-5-sulfonic acid {2-[3-(2-(piperazin-1-yl-phenyl)-propylamino]-ethyl}-amide, tetrahydrochloride salt]
N#Cc1cccc(CCCNCCNS(=O)(=O)c2cc(-c3ccccc3)cc3cnccc23)c1 [Example 32, 7-Phenyl-isoquinoline-5-sulfonic acid {2-[3-(3-cyanophenyl)-propylamino]-ethyl}-amide, dihydrochloride salt]
O=S(=O)(NCCNCCCc1ccc(O)cc1)c1cc(-c2ccccc2)cc2cnccc12 [Example 19, 7-Phenyl-isoquinoline-5-sulfonic acid {2-[3-(4-hydroxyphenyl)-propylamino]-ethyl}-amide, dihydrochloride salt]
O=S(=O)(NCCNCCCc1ccc(S(=O)(=O)C(F)(F)F)cc1)c1cc(-c2ccccc2)cc2cnccc12 [Example 102, 7-Phenyl-isoquinoline-5-sulfonic acid {2-[3-(4-trifluoromethanesulfonyl-phenyl)-propylamino]-ethyl}-amide, dihydrochloride salt]
N#Cc1ccc(CCCNCCNS(=O)(=O)c2cc(-c3ccccc3)cc3cnccc23)cc1 [Example 33, 7-Phenyl-isoquinoline-5-sulfonic acid {2-[3-(4-cyanophenyl)-propylamino]-ethyl}-amide, dihydrochloride salt]
O=[N+]([O-])c1ccc(CCCNCCNS(=O)(=O)c2cc(-c3ccccc3O)cc3cnccc23)cc1 [Example 91, 7-(2-hydroxy-phenyl)-isoquinoline-5-sulfonic acid {2-[3-(4-nitro-phenyl)-propylamino]-ethyl}-amide, dihydrochloride salt]
Nc1ccc(-c2cc(S(=O)(=O)NCCNCCCc3ccc([N+](=O)[O-])cc3)c3ccncc3c2)cc1 [Example 90, 7-(4-aminophenyl)-isoquinoline-5-sulfonic acid [2-(3-(4-nitrophenyl)-propylamino)-ethyl]-amide, trihydrochloride salt]
CN(C)S(=O)(=O)c1ccc(CCCNCCNS(=O)(=O)c2cc(-c3ccccc3)cc3cnccc23)cc1 [Example 24, 7-Phenyl-isoquinoline-5-sulfonic acid {2-[3-(4-(N,N-dimethyl-aminosulfonyl)phenyl)-propyl-amino]-ethyl}-amide, dihydrochloride salt]
O=S(=O)(NCCNCCCc1ccc(OC(F)F)cc1)c1cc(-c2ccccc2)cc2cnccc12 [Example 30, 7-Phenyl-isoquinoline-5-sulfonic acid {2-[3-(4-difluoromethoxy-phenyl)-propylamino]-ethyl}-amide, dihydrochloride salt]
Nc1ccc(CCCNCCNS(=O)(=O)c2cc(-c3ccccc3)cc3cnccc23)cc1 [Example 72, 7-Phenyl-isoquinoline-5-sulfonic acid [2-(3-(4-aminophenyl)-propylamino)-ethyl]-amide, dihydrochloride salt]
O=S(=O)(NCCNCCCc1cccc(Cl)c1Cl)c1cc(-c2ccccc2)cc2cnccc12 [Example 66, 7-Phenyl-isoquinoline-5-sulfonic acid {2-[3-(2,3-dichlorophenyl)-propylamino]-ethyl}-amide, dihydrochloride salt]
COc1cc([N+](=O)[O-])ccc1CCCNCCNS(=O)(=O)c1cc(-c2ccccc2)cc2cnccc12 [Example 63, 7-Phenyl-isoquinoline-5-sulfonic acid {2-[3-(2-methoxy-4-nitrophenyl)-propylamino]-ethyl}-amide, dihydrochloride salt]
O=S(=O)(NCCNCCCc1ccc(Br)cc1)c1cc(-c2ccccc2)cc2cnccc12 [Example 4, 7-Phenyl-isoquinoline-5-sulfonic acid {2-[3-(4-bromophenyl)-propylamino]-ethyl}-amide, dihydrochloride salt]
O=S(=O)(NCCNCCCc1ccc(OC(F)(F)C(F)F)cc1)c1cc(-c2ccccc2)cc2cnccc12 [Example 27, 7-Phenyl-isoquinoline-5-sulfonic acid {2-[3-(4-(1,1,2,2-tetrafluoroethoxy)phenyl)-propylamino]-ethyl}-amide, dihydrochloride salt]
COC(=O)c1cc([N+](=O)[O-])ccc1CCCNCCNS(=O)(=O)c1cc(-c2ccccc2)cc2cnccc12 [Example 62, 7-Phenyl-isoquinoline-5-sulfonic acid {2-[3-(2-methoxycarbonyl-4-nitrophenyl)-propylamino]-ethyl}-amide, dihydrochloride salt]
